{"source": "paper PMC6486817", "about": "(The Journal of organic chemistry, 2018)", "target": "butyrylcholinesterase (BuChE)", "assay": "modified Ellman photometric anti-cholinesterase assay", "assay_type": "biochemical"}
{"smiles": "CCC[C@H](O)CCCCCC[C@H]1CCC[C@@H]2N[C@H](C)[C@H](OC(=O)/C=C/SC)C[C@H]12", "note": "[compound 1, lepadin I]", "values": [{"measurement": "IC50", "result": 3.1, "unit": "µM"}]}
